A short description of the series: in vitro. Conditions: human, hela cells, % viability.
Turning to `CCCSc1nnc(-c2c(Cl)c(CC)nn2C)s1` [CBK026135], the viability (commonly a read-out of living cells in per cent, often relative to untreated cells) at 28.5 h, 10 µM amounted to 104%.
In the case of `Cc1nn(C)c2c1c(=O)n(C)c(=O)n2C` [CBK026140], the viability at 28.5 h, 10 µM came to 89.2%.
To `Cc1n[nH]c(O)c1C(c1ccc(Br)o1)c1c(C)n[nH]c1O` [CBK026150] belongs 102%.
On to `CCc1nnc(N/N=C/c2cccs2)n1N` [CBK026233C], for which the viability at 28.5 h, 10 µM turned out to be 97.9%.
To `CCOc1ccccc1OCC(C)CNC` (stereo not shown) [CBK026242G] belongs 120%; to `CC(C)c1ccc2c(c1)C(N1CCN(C)CC1)Cc1cccnc1S2` (stereo not shown) [CBK026244G], 98.7%; to `CCc1cccc2c1Sc1ccccc1CC2N1CCN(C)CC1` (stereo not shown) [CBK026248G], 103%.
To `Cc1ccc(SCCNS(C)(=O)=O)cc1` [CBK026280] belongs 90.8%; to `C/C(CS(=O)(=O)c1ccccc1)=N/NC(N)=S` [CBK026285], 111%; to `Cc1nnc(SCC(=O)c2ccccc2)[nH]1` [CBK026287], 99.5%.
To `CCCC1(OC(=O)Nc2ccc(Cl)cc2)CCCCC1` [CBK026295] belongs 91.4%; to `Brc1csc(CN2CCN3CCCC3C2C2CCCCC2)c1` (stereo not shown) [CBK026298], 103%; to `CCOC(=O)C1=NN(C(=O)c2ccc(Cl)cc2)C(O)(C(C)(C)C)C1` (stereo not shown) [CBK026308], 86%.
Turning to `CC1=C(C(=O)OC(C)C)C(c2cccc(I)c2)C2=C(CCCC2=O)N1` (stereo not shown) [CBK026317], the viability at 28.5 h, 10 µM was found to be 86.5%.
Regarding `OC1CCCCC1C1(NC(=S)Nc2ccccc2)CCCCC1` (stereo not shown) [CBK026324], the viability at 28.5 h, 10 µM turned out to be 97.9%.
To `S=c1[nH]nc(Nc2ccccc2)n1-c1ccccc1` [CBK026332] belongs 123%; to `Oc1cccnc1CCc1ccccc1` [CBK026334C], 100%.
To `C(=N\Nc1nc2ccccc2[nH]1)/c1cccnc1` [CBK026357] belongs 115%.
To `NC(=O)CS(=O)(=O)c1ccc(Cl)cc1` [CBK026373] belongs 95.7%; to `O=C(O)CSc1c[nH]c2ccccc12` [CBK026377], 93.9%.
On to `O=C(Nc1nc2ccc(Br)cc2s1)C1CC2CCC1C2` (stereo not shown) [CBK026397], for which the viability at 28.5 h, 10 µM came out at 88.8%.
To `Clc1ccc(-c2noc(-c3ccco3)n2)cc1` [CBK026405] belongs 86%.
Consider `O=C(O)c1nc2n(n1)C(C(F)(F)F)CC(c1cccs1)N2` (stereo not shown) [CBK026415], for which the viability at 28.5 h, 10 µM came out at 97%.
To `CS(=O)(=O)N/N=C/c1ccc(Cl)cc1Cl` [CBK026420] belongs 105%.
To `CS(=O)(=O)N/N=C/c1cccc(Br)c1` [CBK026427] belongs 92.5%; to `Cc1ccsc1CN1CCOCC1` [CBK026429], 110%; to `NC(=O)N/N=C/c1cc(Br)cs1` [CBK026434], 81.8%.
For the compound `CC(=O)NCC1OCCc2ccccc21` (stereo not shown) [CBK026449], the viability at 28.5 h, 10 µM stood at 98.4%.
To `CCC1=NC(c2ccccc2Cl)N(O)C1(C)C` (stereo not shown) [CBK026466] belongs 97.5%; to `CC1CN(c2ccccc2Br)NC1=O` (stereo not shown) [CBK026500], 96.7%; to `O=S(=O)(O)CCCSc1nc2ccccc2o1` [CBK026507N], 97.2%.
To `Brc1ccc(-c2nnco2)cc1` [CBK026512] belongs 84.3%; to `CCn1c(=O)sc2cc(Br)ccc21` [CBK026526], 97%.
In the case of `CSc1nc2c(cc1C#N)CCC2` [CBK026532], the viability at 28.5 h, 10 µM was 108%.
To `CCc1nc(C)ccc1O` [CBK026535C] belongs 91%; to `CN1CCC(=NNC(=O)CSCc2ccccc2Br)CC1` [CBK026542], 104%; to `Cc1ccc(NC(=O)OCC(F)(F)C(F)F)cc1Cl` [CBK026548], 93.1%.
Regarding `O=[N+]([O-])c1ccc(CN2CCN(C/C=C/c3ccccc3)CC2)o1` [CBK026551], the viability at 28.5 h, 10 µM amounted to 85.1%.
For the compound `O=C(CSc1nc(=O)cc(O)[nH]1)c1ccccc1` [CBK026570], the viability at 28.5 h, 10 µM was found to be 96.7%.
To `CC(SCCc1ccccn1)C(=O)O` (stereo not shown) [CBK026572] belongs 109%; to `CCCCCc1nc(N)c(-c2cccc(Br)c2)c(C#N)c1CCCC` [CBK026574], 118%; to `Cc1ccc(C(C)C)c(OCC(O)CNC(C)C)c1` (stereo not shown) [CBK026604C], 111%.
To `CC(Sc1ccccc1)C(=O)NC(C)(C)C` (stereo not shown) [CBK026610] belongs 116%; to `CC1CCCC(C)N1C(=O)C1CCCCC1C(=O)O` (stereo not shown) [CBK026624], 93.2%.
Consider `C=C(C)Cn1c(SCCC(=O)OC)nc2sc3c(c2c1=O)CC(C)(C)OC3` [CBK026634], for which the viability at 28.5 h, 10 µM was 59.9%.
To `CC(=O)Nc1nc(NC(C)=O)n2c(-c3ccccc3)nnc2n1` [CBK026649] belongs 93.7%; to `CC1CN(C(=O)NC2CCCCC2)C(c2ccccc2)ON1C` (stereo not shown) [CBK026650], 109%; to `CCc1nnc(NS(=O)(=O)c2ccc(OC(F)(F)F)cc2)s1` [CBK026672], 91.7%.
As for `Cc1nnc(NS(=O)(=O)c2ccc(OC(F)(F)F)cc2)s1` [CBK026673], the viability at 28.5 h, 10 µM was 95.9%.
To `COC(=O)c1c(NS(=O)(=O)c2cccc(Cl)c2)csc1C` [CBK026678] belongs 79.6%; to `COC(=O)c1scc(NS(=O)(=O)c2cccc(C(F)(F)F)c2)c1C(=O)OC` [CBK026680], 94.9%; to `CC(C)Cc1csc2nc(-c3ccc(Br)cc3)oc(=O)c12` [CBK026692], 96.7%.
To `S=c1nc(-c2ccccc2)n2cc(Br)ccc2n1` [CBK026696] belongs 111%; to `O=C(CCOc1ccccc1)Nc1cncc(OC2CCNCC2)n1` [CBK026734T], 95.2%; to `CSc1nc(NC(=O)C(C)c2ccccc2)cc(N2CCNCC2)n1` (stereo not shown) [CBK026742T], 91.2%.
To `C[C@@H]1CNCCN1c1cc(C(F)(F)F)cc(OCc2ccccc2)n1` [CBK026755] belongs 79.1%; to `COc1ccccc1CN(CC(C)(C)CN)C(=O)Nc1ccc(C)c([N+](=O)[O-])c1` [CBK026816C], 98.8%.
For `CC(C)(CN)CN(Cc1ccccc1C(F)(F)F)C(=O)Nc1c(F)cccc1F` [CBK026822C], the viability at 28.5 h, 10 µM was 109%.
To `CC(C)(CN)CN(Cc1ccccc1C(F)(F)F)C(=O)Nc1ccc(C(C)(C)C)cc1` [CBK026828C] belongs 92.4%; to `Cc1ccc(SCS(=O)(=O)c2ccc(C)cc2)cc1` [CBK026853], 97.8%.
To `Clc1ccccc1CSc1nc[nH]n1` [CBK026950] belongs 98.5%; to `CCCCSc1nnc(-c2ccc(Br)cc2)o1` [CBK027012], 117%.
In the case of `O=C(CSc1ncn(-c2ccccc2)n1)c1ccc(Br)cc1` [CBK027014], the viability at 28.5 h, 10 µM amounted to 91.6%.
As to `c1ccc2sc(-n3cncn3)nc2c1` [CBK027022], the viability at 28.5 h, 10 µM was found to be 92.2%.
To `CCN(CC(=O)N1CCN(C(=O)c2ccc(C)cc2)CC1)C(=O)OC` [CBK027051] belongs 82%; to `CC(=O)Nc1cccc2c1NSN2` [CBK027082], 92.1%; to `CCCCNC(=O)NC1CCCC1` [CBK027084], 101%.
To `CC(NC(=O)C1CC=CCC1C(=O)O)C1CC2CCC1C2` (stereo not shown) [CBK027112] belongs 114%.
To `COc1cccc(OCC(O)CN(C)S(=O)(=O)O)c1` (stereo not shown) [CBK027121N] belongs 89.9%; to `CNCCc1ccccc1Sc1ccccc1` [CBK027155G], 102%; to `CCOC(=O)N1N=C(c2ccc(F)cc2)CC1(O)C(F)(F)F` (stereo not shown) [CBK027156], 111%.
As to `CCCCCC1=NN(C(=O)c2ccccc2Br)C(O)(C(F)(F)F)C1` (stereo not shown) [CBK027223], the viability at 28.5 h, 10 µM worked out at 104%.
In the case of `C1=CC2CC1CC2CN1CCN(Cc2cccnc2)CC1` (stereo not shown) [CBK027284], the viability at 28.5 h, 10 µM was determined as 100%.
With `COc1nc(NCCN2CCOCC2)nc(Nc2ccccc2)n1` [CBK027298], the viability at 28.5 h, 10 µM was 102%.
To `CC1=CC(C)C(C(=O)O)C(C(=O)N2CCN(C)CC2)C1` (stereo not shown) [CBK027311G] belongs 97.7%; to `CC(=O)Nc1nnn(CCOc2nonc2C)n1` [CBK027320], 90.2%; to `COc1ccc(CN2CCOCC2)cc1Br` [CBK027346], 80.8%.
As for `CCC1(C)CC(C(CCN)c2ccc(C)cc2)CCO1` (stereo not shown) [CBK027350], the viability at 28.5 h, 10 µM was found to be 98.8%.
For `CCCCC1CCC(c2noc(-c3ccc(F)cc3)n2)CC1` (stereo not shown) [CBK027363], the viability at 28.5 h, 10 µM came out at 90.3%.
On to `Cc1cc(Nc2ccc(I)cc2)n2ncnc2n1` [CBK027364], for which the viability at 28.5 h, 10 µM was 100%.
To `OCCN1CCN(CC(O)COCC2COc3ccccc3O2)CC1` (stereo not shown) [CBK027374C] belongs 97.3%; to `Cn1c(=O)oc2cc(Br)ccc21` [CBK027375], 108%.
Take `Cc1cc(=O)n(C)c(=O)n1CCCCCN1CCCC1` [CBK027386]: the viability at 28.5 h, 10 µM was 99.9%.
To `Cc1cc(C)n2c(SCC(=O)O)nnc2n1` [CBK027406] belongs 108%; to `Clc1nc(NCCN2CCOCC2)nc(N2CCCCCC2)n1` [CBK027412], 98.9%.
To `CC(C)Nc1nc(C#N)nc(NC(C)C)n1` [CBK027421] belongs 84.7%.
To `CCCCC1CCC(C(=O)Nc2ncccn2)CC1` (stereo not shown) [CBK027423] belongs 113%; to `Clc1ccc(C2NCCS2)c(Cl)c1` (stereo not shown) [CBK027425], 102%; to `COC(=O)Nc1nc(Cl)cc(Cl)n1` [CBK027433], 93.8%.
For `CN(C)CCCOC(=O)c1cccnc1Cl` [CBK027436], the viability at 28.5 h, 10 µM came out at 111%.
As to `Cn1c(=O)c(C(N)=O)c(O)c2ccccc21` [CBK027440], the viability at 28.5 h, 10 µM was 78.6%.

Values taken from paper PMC12040169 (PLOS Biology, 2025).
